Laboratory results published in patent publication US8877707B2, “Inhibitors of HCV NS5A” (Presidio Pharmaceuticals, Inc., priority 2010, dated 2014).
Read-outs that look alike come from different tables or passages of the source.

Tested on: HCV genotype 1b replicon in Huh 7 cells
Experiment: HCV replicon assay (1b_Huh-Luc/Neo-ET cell line, luciferase readout)
Format: cell-based
Settings: Hepatitis C virus, read-out: Inhibition of HCV genotype 1b
In short: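 Replicon level was read as luciferase signal after 72 h compound exposure, triplicate wells, starting the day after cells were plated. Cell line: 1b_Huh-Luc/Neo-ET. Values normalised to control as percent, and EC50 fitted with a variable-slope sigmoid; determinations repeated.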

[1] = Table 1, genotype 1b replicon, Huh 7 cells, 72 h, luciferase
[2] = Table 2, genotype 1b replicon, Huh 7 cells, 72 h, luciferase

SMILES | EC50 [1] [nM] | further results
COC(=O)N[C@H](C(=O)N1CCCC[C@H]1c1ncc(-c2ccc(-c3nc4ccc(-c5cnc([C@@H]6CCCCN6C(=O)[C@@H](NC(=O)OC)C(C)C)[nH]5)cc4s3)cc2)[nH]1)C(C)C [compound 243] | < 1 | –
COC(=O)N[C@@H](C)C(=O)N1CCC[C@H]1C(=O)N[C@@H](C)c1ccc(-c2ccc3cc(-c4cnc([C@@H]5CCCN5C(=O)[C@H](C)NC(=O)OC)[nH]4)ccc3c2)cc1 [compound 556] | – | EC50 (Huh-7, HCV 1b replicon): 10 to 999 nM
COC(=O)N[C@H](C(=O)N1CCC[C@H]1c1nc2c([nH]1)-c1ccc(-c3ccc4cc(-c5cnc([C@@H]6CCCN6C(=O)[C@@H](NC(=O)OC)C6CCOCC6)[nH]5)ccc4n3)cc1CC2)C(C)C [293-1] | < 1 | –
COC(=O)N[C@H](C(=O)N1CCOC[C@H]1c1ncc(-c2ccc3cc(-c4ccc5nc([C@@H]6CCCN6C(=O)[C@@H](NC(=O)OC)C6CCOCC6)[nH]c5c4)ccc3c2)[nH]1)C(C)C [compound 221] | < 1 | –
COC(=O)N[C@H](C(=O)N1CCC[C@H]1c1nc2ccc(-c3ccc4cc(-c5cnc([C@@H]6CCCN6C(=O)[C@@H](NC(=O)OC)[C@@H](C)OC)[nH]5)ccc4c3)cc2[nH]1)C1CCCC1 [compound 528] | – | EC50 (Huh-7, HCV 1b replicon): < 1 nM
COC(=O)N[C@H](C(=O)N1CCC[C@H]1c1ncc(-c2ccc3cc(-c4ccc5nc([C@@H]6COCCN6C(=O)[C@@H](NC(=O)OC)[C@@H](C)OC)[nH]c5c4)ccc3c2)[nH]1)[C@@H](C)OC [compound 354] | – | EC50 [2]: < 1 nM
COC(=O)N[C@H](C(=O)N1CCC[C@H]1c1ncc(-c2ccc(-c3ccc4cc(-c5cnc([C@@H]6CCCN6C(=O)[C@@H](NC(=O)OC)C6CCOCC6)[nH]5)ccc4n3)c(F)c2)[nH]1)C(C)C [compound 120] | < 1 | –
COC(=O)N[C@H](C(=O)N1CCC[C@H]1c1ncc(-c2cccc(-c3cccc4cc(-c5cnc([C@@H]6CCCN6C(=O)[C@@H](NC(=O)OC)C(C)C)[nH]5)ccc34)c2)[nH]1)C(C)C [compound 130] | < 1 | –
COC(=O)N[C@H](C(=O)N1CCC[C@H]1c1ncc(-c2ccc(-c3ccc4nc(-c5cnc([C@@H]6CCCN6C(=O)[C@@H](NC(=O)OC)C(C)C)[nH]5)sc4c3)cc2)[nH]1)C(C)C [compound 258] | < 1 | –
COC(=O)N[C@H](C(=O)N1CCC[C@H]1c1ncc(-c2ccc3cc(-c4ccc5nc([C@@H]6COCCN6C(=O)[C@@H](NC(=O)OC)C6CCCCC6)[nH]c5c4)ccc3c2)[nH]1)C1CCCCC1 [compound 361] | – | EC50 [2]: < 1 nM
COC(=O)N[C@H](C(=O)N1CCC[C@H]1c1nc(-c2ccc3nc(-c4ccc(-c5cnc([C@@H]6CCCN6C(=O)[C@@H](NC(=O)OC)C(C)C)[nH]5)cc4)ncc3c2)c[nH]1)C(C)C [compound 17] | < 1 | –
COC(=O)N[C@H](C(=O)N1CCC[C@H]1c1ncc(-c2ccc3cc(-c4ccc5nc([C@@H]6CCCN6C(=O)[C@@H](NC(=O)OC)C6CCCC6)[nH]c5c4)ncc3c2)[nH]1)C1CCCC1 [compound 372] | – | EC50 [2]: < 1 nM
COC(=O)N[C@H](C(=O)N1CCC[C@H]1c1nc2ccc(-c3ccc4cc(-c5cnc([C@@H]6CCCN6C(=O)[C@@H](c6ccccc6)N6CCCC6)[nH]5)ccc4c3)cc2[nH]1)C(C)C [compound 178] | < 1 | –
CC(C)(C)OC(=O)N1CCCC1c1ncc(-c2ccc(-c3nc4cc(-c5cnc([C@@H]6CCCN6C(=O)OCc6ccccc6)[nH]5)ccc4s3)cc2)[nH]1 (some centres unmarked) [compound 250] | 10 to 999 | –
COC(=O)N[C@@H](C)C(=O)N1CCC[C@H]1c1nc(-c2ccc3c(c2)CCN(c2c(F)cc(-c4cnc([C@@H]5CCCN5C(=O)[C@H](C)NC(=O)OC)[nH]4)cc2F)C3)c[nH]1 [compound 272] | < 1 | –
COC(=O)N[C@H](C(=O)N1CCC[C@H]1c1nc2ccc(-c3ccc4cc(-c5cnc([C@@H]6CCCN6C(=O)[C@H](NC(=O)OC)c6ccccc6)[nH]5)ccc4c3)cc2[nH]1)C1CCOCC1 [compound 212] | < 1 | –
CC[C@@H](C)[C@H](NC(=O)OC)C(=O)N1CCC[C@H]1c1ncc(-c2ccc3cc(-c4cnc5nc([C@@H]6CCCN6C(=O)[C@@H](NC(=O)OC)[C@H](C)CC)[nH]c5c4)ccc3c2)[nH]1 [compound 405] | – | EC50 [2]: < 1 nM
COC(=O)N[C@H](C(=O)N1CCC[C@H]1c1ncc(-c2ccc(-c3ccc4cc(-c5cnc([C@@H]6CCCN6C(=O)[C@H](NC(=O)OC6CCOCC6)c6ccccc6)[nH]5)ccc4n3)cc2F)[nH]1)C(C)C [compound 125] | < 1 | –
COC(=O)N[C@H](C(=O)N1CCC[C@H]1c1ncc(-c2ccc3cc(-c4ccc5nc([C@@H]6CCCN6C(=O)[C@@H](NC(=O)OC)C6CCCCC6)[nH]c5c4)ccc3c2)[nH]1)C1CCCCC1 [compound 348] | – | EC50 [2]: < 1 nM
COC(=O)N[C@H](C(=O)N1CCC[C@H]1c1ncc(-c2ccc(-c3cc4ccc(-c5cnc([C@@H]6CCCN6C(=O)[C@H](NC(=O)OC6CCOCC6)c6ccccc6)[nH]5)cc4cn3)cc2F)[nH]1)C(C)C [compound 156] | < 1 | –
COC(=O)N[C@H](C(=O)N1CCC[C@H]1c1ncc(-c2ccc(-c3nc4ccc(-c5cnc([C@@H]6CCCN6C(=O)OCc6ccccc6)[nH]5)cc4s3)cc2)[nH]1)C(C)C [compound 246] | < 1 | –

SMILES | EC50 [1] [nM] | further results
CC[C@H](C)[C@H](NC(=O)OC)C(=O)N1CCC[C@H]1c1ncc(-c2ccc3cc(-c4ccc5nc([C@@H]6CCCN6C(=O)[C@@H](NC(=O)OC)[C@@H](C)CC)[nH]c5n4)ccc3c2)[nH]1 [compound 521] | – | EC50 (Huh-7, HCV 1b replicon): < 1 nM
COC(=O)N[C@H](C(=O)N1CCC[C@H]1c1nc2ccc(-c3ccc4nc(-c5cnc([C@@H]6CCCN6C(=O)[C@@H](NC(=O)OC)C6CCOCC6)[nH]5)ccc4c3)cc2[nH]1)C(C)C [compound 211] | < 1 | –
COC(=O)N[C@H](C(=O)N1CCC[C@H]1c1ncc(-c2ccc3cc(-c4ccc5nc([C@@H]6CCCN6C(=O)[C@@H](NC(=O)OC)C6CC6)[nH]c5c4)ccc3c2)[nH]1)C1CC1 [compound 228] | < 1 | –
COC(=O)N[C@H](C(=O)N1CCC[C@H]1c1ncc(-c2ccc3oc(-c4ccc(-c5cnc([C@@H]6CCCN6C(=O)[C@H](NC(=O)OC)c6ccccc6)[nH]5)cc4)nc3c2)[nH]1)C(C)C [compound 260] | < 1 | –
COC(=O)N[C@H](C(=O)N1CCC[C@H]1c1ncc(-c2ccc3cc(-c4ccc5nc([C@@H]6CCCN6C(=O)[C@@H](NC(=O)OC)C6CCOCC6)[nH]c5c4)nnc3c2)[nH]1)C1CCOCC1 [compound 531] | – | EC50 (Huh-7, HCV 1b replicon): < 1 nM
COC(=O)N[C@H](C(=O)N1CCC[C@H]1c1nc(-c2cnc3cc(-c4ccc(-c5cnc([C@@H]6CCCN6C(=O)[C@@H](NC(=O)OC)C6CCOCC6)[nH]5)cc4)ccc3c2)c[nH]1)C1CCOCC1 [compound 73] | < 1 | –
COC(=O)N[C@H](C(=O)N1CCC[C@H]1c1ncc(-c2ccc(-c3nc4ccc(-c5cnc([C@@H]6CCCN6C(=O)[C@@H](NC(=O)OC)[C@@H](C)OC)[nH]5)cc4o3)cc2)[nH]1)C(C)C [compound 253] | < 1 | –
COC(=O)N[C@H](C(=O)N1CCC[C@H]1c1ncc(-c2ccc3cc(-c4cnc(-c5cnc([C@@H]6CCCN6C(=O)[C@@H](NC(=O)OC)C(C)C)[nH]5)cn4)ccc3c2)[nH]1)C(C)C [compound 506] | – | EC50 (Huh-7, HCV 1b replicon): < 1 nM
COC(=O)N[C@H](C(=O)N[C@@H](C)c1ncc(-c2ccc3cc(-c4ccc(-c5cnc([C@@H]6CCCN6C(=O)[C@H](NC(=O)OC)c6ccccc6)[nH]5)cc4)ccc3c2)[nH]1)[C@@H](C)OC [compound 329] | – | EC50 [2]: < 1 nM
COC(=O)N[C@H](C(=O)N1CCC[C@H]1c1nc(-c2ccc3cc(-c4ccc(-c5cnc([C@@H]6CCCN6C(=O)[C@H](NC(=O)OC)c6ccccc6)[nH]5)nc4)ccc3c2)c[nH]1)C(C)C [compound 63] | < 1 | –
COC(=O)N[C@H](C(=O)N1CCC[C@H]1c1ncc(-c2ccc(-c3ccc4cc(-c5cnc([C@@H]6CCCN6C(=O)[C@@H](NC(=O)OC)C6CCOCC6)[nH]5)ccc4c3)c(F)c2)[nH]1)C1CCOCC1 [compound 141] | < 1 | –
COC(=O)N[C@H](C(=O)N1CCC[C@H]1c1nc(-c2ccc3nc(-c4ccc(-c5cnc([C@@H]6CCCN6C(=O)[C@@H](NC(=O)OC)C(C)C)[nH]5)nc4)ccc3c2)c[nH]1)C(C)C [compound 53] | < 1 | –
COC(=O)N[C@@H](C)C(=O)N1CCC[C@H]1CNC(=O)c1ccc(-c2ccc3cc(-c4cnc([C@@H]5CCCN5C(=O)[C@H](C)NC(=O)OC)[nH]4)ccc3c2)cc1 [compound 564] | – | EC50 (Huh-7, HCV 1b replicon): 10 to 999 nM
COC(=O)N[C@H](C(=O)N1CCC[C@H]1c1ncc(-c2ccc3cc(-c4cc5[nH]c([C@@H]6CCCN6C(=O)[C@@H](NC(=O)OC)[C@@H](C)OC)nc5cn4)ccc3c2)[nH]1)[C@@H](C)OC [compound 415] | – | EC50 [2]: < 1 nM
COC(=O)N[C@H](C(=O)N1CCC[C@H]1c1nc(-c2ccc3cc(-c4ccc(-c5cnc([C@@H]6CCCN6C(=O)[C@@H](NC(=O)OC)[C@@H](C)O)[nH]5)cc4)ccc3c2)c[nH]1)[C@@H](C)O [compound 4] | < 1 | –
COC(=O)N[C@H](C(=O)N1CCC[C@H]1c1nc2ccc(-c3ccc4cc(-c5cnc([C@@H]6CCCN6C(=O)[C@@H](NC(=O)OC)C6CCOCC6)[nH]5)cnc4c3)cc2[nH]1)C(C)C [compound 191] | < 1 | –
COC(=O)N[C@H](C(=O)N1CCC[C@H]1c1ncc(-c2ccc3cc(-c4cnc5nc([C@@H]6CCCN6C(=O)[C@@H](NC(=O)OC)C6CC6)[nH]c5c4)ccc3c2)[nH]1)C1CC1 [compound 406] | – | EC50 [2]: < 1 nM
COC(=O)N[C@H](C(=O)N1CCC[C@H]1c1ncc(-c2ccc3nc(-c4ccc5nc([C@@H]6CCCN6C(=O)[C@@H](NC(=O)OC)C6CCOCC6)[nH]c5c4)ccc3c2)[nH]1)C1CCOCC1 [compound 206] | 1 to 9.9 | –
COC(=O)N[C@H](C(=O)N1CCC[C@H]1c1ncc(-c2ccc3cc(-c4ccc(-c5cnc([C@@H]6CCCN6C(=O)[C@H](NC(=O)OC(C)(C)C)c6ccccc6)[nH]5)cc4)ncc3c2)[nH]1)C1CCOCC1 [compound 118] | < 1 | –
CNC(=O)N[C@@H](C(=O)N1CCC[C@H]1c1ncc(-c2ccc3cc(-c4ccc5nc([C@@H]6CCCN6C(=O)[C@@H](NC(=O)OC)C(C)C)[nH]c5c4)ccc3c2)[nH]1)c1ccccc1 [compound 186] | < 1 | –
